We go through twelve molecules from patent US10662138B2, “Herbicidal propynyl-phenyl compounds” (Syngenta Participations AG, priority 2014, dated 2020).

What all share (assay type): in vivo
In test [1] the test system is Abutilon theophrasti. Put plainly: Glasshouse assay for herbicidal activity, post-emergence, ABUTH. The conditions noted are these: visual 13 days after application, 100%=total damage; for pest or weed control at 30 g/ha / pest or weed control at 250 g/ha: Abutilon theophrasti, 312 h, read-out: Percentage phytotoxicity ABUTH. How it is done: (§1) Seeds of a variety of test plant species were sown in standard soil ** in pots. After cultivation for one day (pre-emergence) or after 8 days cultivation (post-emergence) under controlled conditions in a glasshouse (at 24/16° C., day/night; 14 hours light; 65% humidity), the plants were sprayed with an aqueous spray solution derived from the formulation of the technical active ingredient (the test herbicide) in acetone/water (50:50) solution containing 0.5% Tween 20 (polyoxyethylene sorbitan monolaurate, CAS Reg. No. 9005-64-5). The test plants were then grown on under controlled conditions in a glasshouse (at 24/16° C., day/night; 14 hours light; 65% humidity) and watered twice daily. 13 Days after application of the test herbicide, for pre- and post-emergence, the test was evaluated visually for percentage phytotoxicity to each plant (where 100%=total damage to plant; 0%=no damage to plant). Generally, each test herbicide is only tested on 1 plant per plant species for each application rate tested and for each application timing. The “standard soil” in Biological Example 1 is usually a “sand” or “sandy loam” type of soil. Biological Example 1—Post-Emergence Application—Herbicidal Activity Results (Percentage Phytotoxicity) Dicotyledonous weeds: ABUTH=Abutilon theophrasti; AMARE=Amaranthus retroflexus. Grassy monocotyledonous weeds: SETFA=Setaria faberi; ALOMY=Alopecurus myosuroides; ECHCG=Echinochloa crus-galli; ZEAMX=Zea mays (corn, maize, e.g. volunteer corn).

Test [2] concerns Setaria faberi. The test can be described thus: Glasshouse assay for herbicidal activity, post-emergence, SETFA. Particulars: visual 13 days after application, 100%=total damage; for pest or weed control at 30 g/ha / pest or weed control at 250 g/ha: Setaria faberi, 312 h, read-out: Percentage phytotoxicity SETFA. How it is done: as §1
Test [3] concerns Alopecurus myosuroides. Put plainly: Glasshouse assay for herbicidal activity, post-emergence, ALOMY. The conditions noted are these: visual 13 days after application, 100%=total damage; for pest or weed control at 30 g/ha / pest or weed control at 250 g/ha: Alopecurus myosuroides, 312 h, read-out: Percentage phytotoxicity ALOMY. How it is done: as §1
Test [4] concerns Amaranthus retroflexus. The test can be described thus: Glasshouse assay for herbicidal activity, post-emergence, AMARE. The conditions noted are these: visual 13 days after application, 100%=total damage; for pest or weed control at 30 g/ha / pest or weed control at 250 g/ha: Amaranthus retroflexus, 312 h, read-out: Percentage phytotoxicity AMARE. How it is done:
as §1

Test [5] deals with Zea mays (corn, maize, e.g. volunteer corn). The test can be described thus: Glasshouse assay for herbicidal activity, post-emergence, ZEAMX. Particulars: visual 13 days after application, 100%=total damage; for pest or weed control at 30 g/ha / pest or weed control at 250 g/ha: Zea mays, 312 h, read-out: Percentage phytotoxicity ZEAMX. How it is done:
as §1

The test system of test [6] is Echinochloa crus-galli. The test can be described thus: Glasshouse assay for herbicidal activity, post-emergence, ECHCG. The conditions noted are these: visual 13 days after application, 100%=total damage; for pest or weed control at 30 g/ha / pest or weed control at 250 g/ha: Echinochloa crus-galli, 312 h, read-out: Percentage phytotoxicity ECHCG. How it is done: as §1

With “4-(2,6-Dimethoxy-4-prop-1-ynyl-phenyl)-2,2,6,6-tetramethyl-tetrahydropyran-3,5-dione [Compound A2]”, the “Percentage phytotoxicity ABUTH” value in test [1] (250 g/ha) was determined as 10%. Besides, the “Percentage phytotoxicity SETFA” value in test [2] (250 g/ha) is 90%. Also, the “Percentage phytotoxicity ALOMY” value in test [3] (250 g/ha) came to 90%. Besides, in test [4] (250 g/ha), the “Percentage phytotoxicity AMARE” value amounted to 0%. Besides, the “Percentage phytotoxicity ZEAMX” value in test [5] (250 g/ha) is given as 70%. In test [6] (250 g/ha), the “Percentage phytotoxicity ECHCG” value is 70%.
As for `CC#Cc1ccc(C2C(=O)C3CCC(C3)C2=O)c(OC)c1` (centres unmarked) [Compound A1, 3-(2-methoxy-4-prop-1-ynyl-phenyl)bicyclo[3.2.1]octane-2,4-dione], the pest or weed control at 30 g/ha turned out to be 10% in test [1]; 90% in test [2]; 100% in test [3]; 30% in test [4]; 100% in test [5]; 100% in test [6]. In addition, the pest or weed control at 250 g/ha turned out to be 20% in test [1] (250 g/ha); 100% in test [2] (250 g/ha); 100% in test [3] (250 g/ha); 50% in test [4] (250 g/ha); 100% in test [5] (250 g/ha); 100% in test [6] (250 g/ha).
Take `CC#Cc1cc(OC)c(C2C(=O)C3CCC(C3)C2=O)c(C(F)(F)F)c1` (centres unmarked) [Compound A3, 3-[2-methoxy-4-prop-1-ynyl-6-(trifluoromethyl)phenyl]bicyclo[3.2.1]octane-2,4-dione]: the pest or weed control at 30 g/ha came out at 0% in test [1]; 70% in test [2]; 40% in test [3]; 0% in test [4]; 90% in test [5]; 70% in test [6]. The pest or weed control at 250 g/ha in test [1] (250 g/ha) was 0%; in test [2] (250 g/ha), 90%; in test [3] (250 g/ha), 70%; in test [4] (250 g/ha), 0%; in test [5] (250 g/ha) it was 90%; in test [6] (250 g/ha), 100%.
As to `CC#Cc1ccc(C2C(=O)C3CCC(C3)C2=O)c(OCC(F)(F)F)c1` (centres unmarked) [Compound A4], the pest or weed control at 30 g/ha is 0% in test [1]; 40% in test [2]; 10% in test [3]; 0% in test [4]; 30% in test [5]; 20% in test [6]. Also, the pest or weed control at 250 g/ha in test [1] (250 g/ha) was found to be 0%; in test [2] (250 g/ha), 70%; in test [3] (250 g/ha), 30%; in test [4] (250 g/ha) it was 0%; in test [5] (250 g/ha), 60%; in test [6] (250 g/ha) it was 40%.
For `CC#Cc1ccc(C2C(=O)C3CCC(C3)C2=O)c(OC(F)F)c1` (centres unmarked) [Compound A5], the pest or weed control at 30 g/ha in test [1] stood at 0%; in test [2] it was 60%; in test [3], 50%; in test [4], 0%; in test [5] it was 100%; in test [6] it was 90%. The pest or weed control at 250 g/ha in test [1] (250 g/ha) is 0%; in test [2] (250 g/ha) it was 90%; in test [3] (250 g/ha) it was 80%; in test [4] (250 g/ha), 0%; in test [5] (250 g/ha), 100%; in test [6] (250 g/ha), 100%.
With `CC#Cc1ccc(C2C(=O)C3CCC(C3)C2=O)c(OCCC)c1` (centres unmarked) [Compound A6], the pest or weed control at 30 g/ha in test [1] worked out at 0%; in test [2], 10%; in test [4], 0%; in test [5] it was 40%; in test [6] it was 40%. The pest or weed control at 250 g/ha in test [1] (250 g/ha) came out at 0%; in test [2] (250 g/ha), 50%; in test [4] (250 g/ha) it was 0%; in test [5] (250 g/ha), 80%; in test [6] (250 g/ha), 70%.
On to `CC#Cc1cc(OC)c(C2C(=O)C3CCC(C3)C2=O)c(OC)c1` (centres unmarked) [Compound A7], for which the pest or weed control at 30 g/ha stood at 0% in test [1]; 100% in test [2]; 90% in test [3]; 0% in test [4]; 100% in test [5]; 100% in test [6]. Also, the pest or weed control at 250 g/ha in test [1] (250 g/ha) was 10%; in test [2] (250 g/ha) it was 100%; in test [3] (250 g/ha) it was 100%; in test [4] (250 g/ha), 0%; in test [5] (250 g/ha) it was 100%; in test [6] (250 g/ha) it was 100%.
For the molecule `CC#Cc1ccc(C2C(=O)C3CCC(C3)C2=O)c(OC(F)(F)F)c1` (centres unmarked) [Compound A8], the pest or weed control at 250 g/ha was 80% in test [1] (250 g/ha); 100% in test [2] (250 g/ha); 100% in test [3] (250 g/ha); 10% in test [4] (250 g/ha); 100% in test [5] (250 g/ha); 100% in test [6] (250 g/ha).
Take `CC#Cc1ccc(C2C(=O)CC(CCSC)CC2=O)c(OC)c1` (centres unmarked) [Compound A9]: the pest or weed control at 30 g/ha is 20% in test [1]; 80% in test [2]; 30% in test [3]; 0% in test [4]; 90% in test [5]; 80% in test [6]. Besides, the pest or weed control at 250 g/ha in test [1] (250 g/ha) was found to be 40%; in test [2] (250 g/ha), 90%; in test [3] (250 g/ha) it was 90%; in test [4] (250 g/ha) it was 20%; in test [5] (250 g/ha) it was 100%; in test [6] (250 g/ha), 90%.
In the case of `CC#Cc1ccc(C2C(=O)CCCC2=O)c(OC)c1` [Compound A10], the pest or weed control at 30 g/ha came out at 0% in test [1]; 60% in test [2]; 0% in test [3]; 10% in test [4]; 90% in test [5]; 20% in test [6]. In addition, the pest or weed control at 250 g/ha is 10% in test [1] (250 g/ha); 70% in test [2] (250 g/ha); 70% in test [3] (250 g/ha); 20% in test [4] (250 g/ha); 90% in test [5] (250 g/ha); 30% in test [6] (250 g/ha).
Take `CC#Cc1cc(OC)c(C2C(=O)CCCC2=O)c(OC)c1` [Compound A11, 2-(2,6-dimethoxy-4-prop-1-ynyl-phenyl)cyclohexane-1,3-dione]: the pest or weed control at 30 g/ha in test [1] turned out to be 0%; in test [2] it was 100%; in test [3], 70%; in test [4], 10%; in test [5], 100%; in test [6], 100%. For the same molecule, the pest or weed control at 250 g/ha in test [1] (250 g/ha) is 0%; in test [2] (250 g/ha), 100%; in test [3] (250 g/ha), 90%; in test [4] (250 g/ha), 30%; in test [5] (250 g/ha), 100%; in test [6] (250 g/ha), 100%.
Take `CC#Cc1ccc(C2C(=O)C3CCC(C3)C2=O)c(OCC)c1` (centres unmarked) [Compound A14]: the pest or weed control at 30 g/ha in test [1] amounted to 0%; in test [2], 50%; in test [4] it was 0%; in test [5], 70%; in test [6], 70%. Moreover, the pest or weed control at 250 g/ha in test [1] (250 g/ha) stood at 0%; in test [2] (250 g/ha), 90%; in test [4] (250 g/ha), 0%; in test [5] (250 g/ha) it was 90%; in test [6] (250 g/ha), 100%.
